These results are taken from patent US20080262031A1, “4-Aminoquinoline Derivatives as Antimalarials” (CTG PHARMA S.R.L., priority 2005, published 2008).

Structures are written as SMILES. In brackets after ≈: the same amount, converted by molar mass. Like-named read-outs stand apart in the source and are kept apart here. Bounds are passed on as bounds.

In assay [1] the test system is chloroquine-sensitive (CQ-S) Plasmodium falciparum strain D10. Kind of assay: in vitro antimalarial activity on chloroquine-sensitive strain D10. Format: cell-based.
Assay [2] deals with chloroquine-resistant (CQ-R) Plasmodium falciparum strain W2. Kind of assay: in vitro antimalarial activity on chloroquine-resistant strain W2. The assay is classed as cell-based.
Setting [3] is: P. falciparum strain D10, chloroquine-sensitive, n = 4 ± SD, read-out: D10 (CQ-S) IC50.
The mark [4] stands for this setting: P. falciparum strain W2, chloroquine-resistant, n = 4 ± SD, read-out: W2 (CQ-R) IC50.

Usually IC50 stands for the concentration needed to halve the response being measured. Regarding `Oc1cc(Nc2ccnc3cc(Cl)ccc23)ccc1CNCCC12CCCN1CCC2` [Example 4], the values for the IC50 in assay [1] (setting [3]) and in assay [2] (setting [4]) were 0.0172 ± 0.0019 µg/mL (≈ 0.0394 µM) and < 0.08 µg/mL, respectively.
For `Clc1ccc2c(NCCC34CCCN3CCC4)ccnc2c1` [Example 1, N-(7-chloro-quinolin-4-yl)-2-(tetrahydropyrrolizin-7a-yl)-ethylamine] the same measures were 0.0017 ± 0.0014 µg/mL (≈ 0.00538 µM) and 0.0173 ± 0.0024 µg/mL (≈ 0.0548 µM).
In the case of `CCN(CC)CCCC(C)Nc1ccnc2cc(Cl)ccc12` (stereo not shown) [Chloroquine, chloroquine, reference compound], the 50% inhibitory concentration (IC50) in assay [1] (D10, read-out: D10 (CQ-S) IC50) is 0.0097 ± 0.0036 µg/mL (≈ 0.0303 µM); in assay [2] (W2, read-out: W2 (CQ-R) IC50), 0.17 ± 0.0413 µg/mL (≈ 0.532 µM).
`Clc1ccc2c(NCC34CCCN3CCC4)ccnc2c1` [Example 2, N-(7-chloro-quinolin-4-yl)-(tetrahydropyrrolizin-7a-yl)-methylamine]: the IC50 amounted to 0.0092 ± 0.0022 µg/mL (≈ 0.0305 µM) in assay [1] (setting [3]) and 0.0087 ± 0.0035 µg/mL (≈ 0.0288 µM) in assay [2] (setting [4]).
Regarding `Oc1cc(Nc2ccnc3cc(Cl)ccc23)ccc1CNC[C@@H]1CCCN2CCCC[C@H]12` [Example 3], the IC50 was determined as 0.0103 ± 0.0019 µg/mL (≈ 0.0228 µM) in assay [1] (setting [3]) and 0.0114 ± 0.0021 µg/mL (≈ 0.0253 µM) in assay [2] (setting [4]).
